Results from BindingDB's records for patent US20250051327 (Exscientia AI, 2025).

target: T1, Mucosa-associated lymphoid tissue lymphoma translocation protein 1 (Homo sapiens, UniProt Q9UDY8); test: MALT-1 Inhibition Assay
T1 sequence (Q9UDY8 whole entry): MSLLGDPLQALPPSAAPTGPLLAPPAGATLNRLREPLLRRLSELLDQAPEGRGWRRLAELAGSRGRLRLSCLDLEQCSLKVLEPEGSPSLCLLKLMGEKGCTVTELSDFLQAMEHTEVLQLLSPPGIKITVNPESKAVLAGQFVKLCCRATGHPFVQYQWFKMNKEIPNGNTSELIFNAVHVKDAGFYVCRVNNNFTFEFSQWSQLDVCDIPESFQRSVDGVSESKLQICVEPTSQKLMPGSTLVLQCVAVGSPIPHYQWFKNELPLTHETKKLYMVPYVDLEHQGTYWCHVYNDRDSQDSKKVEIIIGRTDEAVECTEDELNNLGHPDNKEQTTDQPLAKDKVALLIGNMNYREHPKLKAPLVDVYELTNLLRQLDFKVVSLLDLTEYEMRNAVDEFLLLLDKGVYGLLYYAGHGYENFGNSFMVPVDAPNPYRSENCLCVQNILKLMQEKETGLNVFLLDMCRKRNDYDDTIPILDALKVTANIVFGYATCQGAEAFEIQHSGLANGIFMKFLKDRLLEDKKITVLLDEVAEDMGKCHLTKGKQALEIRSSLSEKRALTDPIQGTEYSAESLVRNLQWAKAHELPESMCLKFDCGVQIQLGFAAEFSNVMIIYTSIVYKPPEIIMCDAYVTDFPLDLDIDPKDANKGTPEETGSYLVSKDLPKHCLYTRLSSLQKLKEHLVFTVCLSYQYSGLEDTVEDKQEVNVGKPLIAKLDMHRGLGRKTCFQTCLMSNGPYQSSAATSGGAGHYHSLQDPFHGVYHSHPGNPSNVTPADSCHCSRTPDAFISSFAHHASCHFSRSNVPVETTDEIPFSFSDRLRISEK
Description: MALT-1 paracaspase activity was measured using the fluorogenic substrate Ac-LRSR-Rh110-DP (purchased from Biosantan GmbH). Proteolytic cleavage of the peptide—rhodamine conjugate results in an increase of rhodamine fluorescence which is inhibited by test compounds. Test compounds were diluted in DMSO in a series of 10 semi-log step doses, 15 nL of each compound dose were dispensed in 384 well polypropylene plates (HiBase non-binding, Greiner Bio-One cat #784900). All other assay components were diluted to appropriate working concentrations in assay buffer composed of: 200 mM Tris-HCl (pH 7.5; Sigma-Aldrich cat #T2663-1L), 0.1 mM EGTA (Sigma-Aldrich cat #E3889-10G), 0.05% CHAPS—Sigma-Aldrich cat #C9426-1G), 1 mM TCEP (Sigma-Aldrich cat #646547-10×1 mL), 0.8 M sodium citrate (Sigma-Aldrich cat #S1804-500G). Recombinant human MALT-1 (amino acids 340-824, accession NP_006776.1) was added to compound doses and equilibrated for 40 minutes at rt. The reaction was initiated by addition of substrate. Final concentrations of MALT-1 and substrate were 3 nM and 10 μM respectively. Reactions were incubated in the dark for 60 minutes at 25° C. Fluorescence was measured in a PHERAstar FSX plate reader (BMG LABTECH) with optical setup for excitation at 485 nm and emission at 520 nm, focal height of 11.8 mm, 20 flashes, gain 300. Percent inhibition values were calculated from relative fluorescence units at different doses and fitted to a 4-parameter logistic curve to determine IC50 values.

Point of comparison: `COc1ccc2ncc(Nc3ccc([C@H](N(C)C(=O)[C@@H]4CNC(=O)C4)C(F)(F)F)cc3)c([C@H]3CCOC3)c2n1` (relative stereo) [US20250051327, Reference CPD0084144], IC50 76 nM. Against it:
- COc1ccc2ncc(Nc3ccc([C@H](N(C)C(=O)C4CCS(=O)(=O)CC4)C(F)(F)F)cn3)c([C@@H](C)OC)c2n1 (relative stereo) [US20250051327, Reference CPD0019006] — 1.8-fold higher, 139 nM
- COc1ccc2ncc(Nc3ccc([C@H](N(C)C(=O)C4CCS(=O)(=O)CC4)C(F)(F)F)cc3)c([C@H](C)OC)c2n1 (relative stereo) [US20250051327, Reference CPD0019170] — within 1.5-fold, 65 nM
- COc1ccc2ncc(Nc3ccc([C@H](N(C)C(=O)C4CCS(=O)(=O)CC4)C(F)(F)F)cc3)c([C@@H](C)OC)c2n1 (relative stereo) [US20250051327, Reference CPD0019171] — 2.6-fold higher, 196 nM
- COc1ccc2ncc(Nc3ccc([C@H](N(C)C(=O)[C@H]4CC[S@@+]([O-])CC4)C(F)(F)F)cc3)c([C@H](C)OC)c2n1 (relative stereo) [US20250051327, Reference CPD0072935] — within 1.5-fold, 75 nM
- COc1ccc2ncc(Nc3ccc([C@H](N(C)C(=O)[C@H]4CC[S@+]([O-])CC4)C(F)(F)F)cc3)c([C@H](C)OC)c2n1 (relative stereo) [US20250051327, Reference CPD0072936] — within 1.5-fold, 68 nM
- COc1ccc2ncc(Nc3ccc([C@H](N(C)C(=O)C4CCS(=O)(=O)CC4)C(F)(F)F)cc3)c([C@H]3CCCO3)c2n1 (relative stereo) [US20250051327, Reference CPD0074043] — within 1.5-fold, 107 nM
- COc1ccc2ncc(Nc3ccc([C@H](N(C)C(=O)C4CCS(=O)(=O)CC4)C(F)(F)F)cc3)c([C@@H]3CCCO3)c2n1 (relative stereo) [US20250051327, Reference CPD0074044] — 2.9-fold higher, 218 nM
- COc1ccc2ncc(Nc3ccc([C@H](N(C)C(=O)[C@@H]4CNC(=O)C4)C(F)(F)F)cc3)c([C@H](C)OC)c2n1 (relative stereo) [US20250051327, Reference CPD0074550] — within 1.5-fold, 81 nM
- C[C@H]1CCN(c2ccc([C@H](N(C)C(=O)[C@H]3CC[S@](=N)(=O)CC3)C(F)(F)F)cc2)c2cnc3cc(F)nn3c21 (relative stereo) [US20250051327, Reference CPD0074553] — 1.9-fold lower, 39 nM
- C[C@H]1CCN(c2ccc([C@H](N(C)C(=O)[C@H]3CC[S@@](=N)(=O)CC3)C(F)(F)F)cc2)c2cnc3cc(F)nn3c21 (relative stereo) [US20250051327, Reference CPD0074554] — 1.7-fold lower, 44 nM
- COc1ccc2ncc(Nc3ccc([C@H](N(C)C(=O)C4CCN(C(C)=O)CC4)C(F)(F)F)cc3)c([C@H](C)OC)c2n1 (relative stereo) [US20250051327, Reference CPD0074559] — 2-fold higher, 153 nM
- COc1ccc2ncc(Nc3ccc([C@H](N(C)C(=O)[C@H]4CNC(=O)C4)C(F)(F)F)cc3)c([C@H](C)OC)c2n1 (relative stereo) [US20250051327, Reference CPD0074562] — within 1.5-fold, 79 nM
- COc1ccc2ncc(Nc3ccc([C@H](N(C)C(=O)[C@@H]4CCC(=O)N4)C(F)(F)F)cc3)c([C@H](C)OC)c2n1 (relative stereo) [US20250051327, Reference CPD0075580] — 1.6-fold lower, 47 nM
- COc1ccc2ncc(Nc3ccc([C@H](N(C)C(=O)[C@H]4CCC(=O)N4)C(F)(F)F)cc3)c([C@H](C)OC)c2n1 (relative stereo) [US20250051327, Reference CPD0075581] — 2.1-fold lower, 37 nM
- CO[C@@H](C)c1c(Nc2ccc([C@H](N(C)C(=O)[C@H]3CNC(=O)C3)C(F)(F)F)cc2)cnn2cc(Cl)nc12 (relative stereo) [US20250051327, Reference CPD0082467] — 1.8-fold lower, 42 nM
- CO[C@@H](C)c1c(Nc2ccc([C@H](N(C)C(=O)[C@H]3CCC(=O)NC3)C(F)(F)F)cc2)cnn2cc(Cl)nc12 (relative stereo) [US20250051327, Reference CPD0082471] — 2.1-fold lower, 37 nM
- CO[C@@H](C)c1c(Nc2ccc([C@H](N(C)C(=O)[C@@H]3CCC(=O)NC3)C(F)(F)F)cc2)cnn2cc(Cl)nc12 (relative stereo) [US20250051327, Reference CPD0082472] — 1.9-fold lower, 41 nM
- COc1ccc2ncc(Nc3ccc([C@H](N(C)C(=O)[C@H]4CNC(=O)C4)C(F)(F)F)cc3)c([C@@H]3CCOC3)c2n1 (relative stereo) [US20250051327, Reference CPD0082477] — 1.9-fold lower, 41 nM
- CO[C@@H](C)c1c(Nc2ccc([C@H](N(C)C(=O)[C@H]3CCN(C(=O)CO)C3)C(F)(F)F)cc2)cnn2cc(Cl)nc12 (relative stereo) [US20250051327, Reference CPD0084139] — within 1.5-fold, 52 nM
- CO[C@@H](C)c1c(Nc2ccc([C@H](N(C)C(=O)[C@@H]3CCN(C(=O)CO)C3)C(F)(F)F)cc2)cnn2cc(Cl)nc12 (relative stereo) [US20250051327, Reference CPD0084140] — 1.7-fold lower, 45 nM
- COc1ccc2ncc(Nc3ccc([C@H](N(C)C(=O)[C@H]4CNC(=O)C4)C(F)(F)F)cc3)c([C@H]3CCOC3)c2n1 (relative stereo) [US20250051327, Reference CPD0084143] — within 1.5-fold, 72 nM
- COc1ccc2ncc(Nc3ccc([C@H](N(C)C(=O)C4CCS(=O)(=O)CC4)C(F)(F)F)cn3)c(C(C)OC)c2n1 (stereo partly drawn) [US20250051327, Reference CPD0019007] — 3.2-fold higher, 242 nM
- COc1ccc2ccc(Nc3ccc([C@H](N(C)C(=O)C4CCS(=O)(=O)CC4)C(F)(F)F)cc3)cc2n1 [US20250051327, Reference CPD0019078] — 2.4-fold higher, 182 nM
- CN(C(=O)C1CCS(=O)(=O)CC1)[C@@H](c1ccc(N2CCCc3c2cnc2cc(Cl)nn32)nc1)C(F)(F)F [US20250051327, Reference CPD0019212] — 4.1-fold higher, 313 nM
- CN(C(=O)C1CCS(=O)(=O)CC1)[C@@H](c1ccc(N2CCC3(CC3)c3c2cnc2cc(Cl)nn32)cc1)C(F)(F)F [US20250051327, Reference CPD0019590] — within 1.5-fold, 64 nM
- CN(C(=O)C1CCS(=O)(=O)CC1)[C@@H](c1ccc(N2CCC3(CC3)c3c2cnc2cc(Cl)nn32)nc1)C(F)(F)F [US20250051327, Reference CPD0021660] — within 1.5-fold, 87 nM
- COC[C@@]1(C)CCN(c2ccc([C@H](N(C)C(=O)C3CCS(=O)(=O)CC3)C(F)(F)F)cc2)c2cnc3cc(Cl)nn3c21 [US20250051327, Reference CPD0073139] — within 1.5-fold, 112 nM
- COC[C@]1(C)CCN(c2ccc([C@H](N(C)C(=O)C3CCS(=O)(=O)CC3)C(F)(F)F)cc2)c2cnc3cc(Cl)nn3c21 [US20250051327, Reference CPD0073140] — within 1.5-fold, 92 nM
- CN(C(=O)[C@@H]1CCN(C(=O)CC#N)C1)[C@@H](c1ccc(N2CCCc3c2cnc2cc(Cl)nn32)cc1)C(F)(F)F [US20250051327, Reference CPD0073190] — 1.5-fold higher, 114 nM
- CN(C(=O)[C@H]1CCN(C(=O)CC#N)C1)[C@@H](c1ccc(N2CCCc3c2cnc2cc(Cl)nn32)cc1)C(F)(F)F [US20250051327, Reference CPD0073191] — within 1.5-fold, 96 nM
- CN(C(=O)[C@H]1C[C@@H]([S@@+](C)(=N)[O-])C1)[C@@H](c1ccc(N2CCCc3c2cnc2cc(Cl)nn32)cc1)C(F)(F)F [US20250051327, Reference CPD0073223] — within 1.5-fold, 57 nM
- CN(C(=O)[C@H]1CC[S@](=N)(=O)CC1)[C@@H](c1ccc(N2CC(C)(C)Cc3c2cnc2cc(Cl)nn32)cc1)C(F)(F)F [US20250051327, Reference CPD0073497] — within 1.5-fold, 52 nM
